Laboratory results taken from patent US20240293554A1, “QUATERNIZED NICOTINAMIDE ADENINE DINUCLEOTIDE SALVAGE PATHWAY INHIBITOR CONJUGATES” (priority 2017, published 2024).

How the values were obtained:
L540cy = assay: CellTiter-Glo cytotoxicity assay, L540cy; assay type: cell-based; settings: L540cy (Hodgkin's lymphoma), 96 h
Description: (§1) In vitro cytotoxicity assays: Cells cultured in log-phase growth were seeded for 24 h in 96-well plates containing 150 μL RPMI 1640 supplemented with 20% FBS. Serial dilutions of free drugs or antibody-drug conjugates in cell culture media were prepared at 4× working concentrations; 50 μL of each dilution was added to the 96-well plates. Following addition of ADC, cells were incubated with test articles for 4 d at 37° C. After 96 h, growth inhibition was assessed by CellTiter-Glo™ (Promega, Madison, WI) and luminescence was measured on a plate reader. The IC50 value is defined here as the concentration that results in a 50% reduction in cell growth relative to untreated controls.
(§2) Example 89. Binding and cytoxicity of NAMPTi compounds.
(§3) Karpas 299 (non-Hodgkin's lymphoma), L540cy (Hodgkin's lymphoma), Ramos (Burkitt's lymphoma), HepG2 (hepatocellular carcinoma), Hep3B (hepatocellular carcinoma). NAMPTi compounds of Table 1 have the following structures: […]

Ramos = assay: CellTiter-Glo cytotoxicity assay, Ramos; assay type: cell-based; settings: Ramos (Burkitt's lymphoma), 96 h
Description: as §1, §2, §3

HepG2 = assay: CellTiter-Glo cytotoxicity assay, HepG2; assay type: cell-based; settings: HepG2 (hepatocellular carcinoma), 96 h
Description: as §1, §2, §3

purified NAMPT = purified NAMPT (Homo sapiens, UniProt P43490); settings: read-out: FP assay (IC50); NAMPT 120 nM, fluorescent probe 30 nM, 4 hours room temp
purified NAMPT, sequence (P43490 whole entry): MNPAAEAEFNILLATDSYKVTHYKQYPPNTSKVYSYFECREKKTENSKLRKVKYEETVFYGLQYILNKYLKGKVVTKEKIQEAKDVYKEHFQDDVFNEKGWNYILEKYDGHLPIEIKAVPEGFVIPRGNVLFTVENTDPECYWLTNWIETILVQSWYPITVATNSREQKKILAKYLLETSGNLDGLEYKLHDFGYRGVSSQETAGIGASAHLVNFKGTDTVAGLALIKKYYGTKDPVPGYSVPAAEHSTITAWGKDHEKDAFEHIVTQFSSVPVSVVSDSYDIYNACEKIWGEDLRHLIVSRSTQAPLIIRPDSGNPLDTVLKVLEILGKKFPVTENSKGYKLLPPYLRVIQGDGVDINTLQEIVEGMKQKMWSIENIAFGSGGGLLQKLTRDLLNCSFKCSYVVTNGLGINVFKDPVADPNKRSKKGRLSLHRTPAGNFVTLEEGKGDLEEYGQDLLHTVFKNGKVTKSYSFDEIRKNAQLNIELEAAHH

L540cy xenograft = assay: L540cy Hodgkin's lymphoma xenograft model; assay type: in vivo, SCID mice; settings: cAC10 ADC (8 drugs per antibody) from the named Drug Linker compound; for tumor growth delay: single 1 mg/kg dose ip on day 8, tumors ~100 mm^3; for tolerability (weight loss, outward signs of toxicity): single 1 mg/kg dose ip, SCID mice
Description: In vivo xenograft models. All experiments were conducted in concordance with the Animal Care and Use Committee in a facility fully accredited by the Association for Assessment and Accreditation of Laboratory Animal Care. Efficacy experiments were conducted in the L540cy Hodgkin's lymphoma model. Tumor cells, as a cell suspension, were implanted sub-cutaneous in immune-compromised SCID mice. Upon tumor engraftment, mice were randomized to study groups (5 mice per group) when the average tumor volume reached about 100 mm^3. The ADC or controls were dosed once via intraperitoneal injection. Tumor volume as a function of time was determined using the formula (L×W^2)/2. Animals were euthanized when tumor volumes reached 750 mm^3. Mice showing durable regressions were terminated after 10-12 weeks post implant.
[…] chimeric antibody cAC10 were prepared from Drug Linker compounds 5 (MDPr-GlucQ-FK866), 12 (MDPr-GlucQ-6050) and 26 (MDPr-GlucQ-6553) to provide ADCs carrying 8 drugs per antibody. Animals were implanted with tumor cells on day 0. Tumors reached ˜100 mm^3 on day 8, and were then treated with a single 1 mg/kg dose (ip) of ADCs.

| Structure (SMILES) | IC50 (L540cy) | IC50 (Ramos) | IC50 (HepG2) | IC50 (purified NAMPT) | tumor growth delay (L540cy xenograft) | tolerability (weight loss, outward signs of toxicity) (L540cy xenograft) |
| --- | --- | --- | --- | --- | --- | --- |
| CC(C)(C)OC(=O)NC[C@@H](C(=O)NCCC(=O)Nc1cc(C[n+]2ccn3cc(C(=O)NCc4ccc(S(=O)(=O)c5cc(F)cc(F)c5)cc4)ccc32)ccc1O[C@@H]1O[C@H](C(=O)O)[C@@H](O)[C@H](O)[C@H]1O)N1C(=O)C=CC1=O [Compound 29, 1-(3-(3-((S)-3-((tert-butoxycarbonyl)amino)-2-(2,5-dioxo-2,5-dihydro-1H-pyrrol-1-yl)propanamido)propanamido)-4-(((2S,3R,4S,5S,6S)-6-carboxy-3,4,5-trihydroxytetrahydro-2H-pyran-2-yl)oxy)benzyl)-6-((4-((3,5-difluorophenyl)-sulfonyl)benzyl)carbamoyl)imidazo[1,2-a]pyridin-1-ium 2,2,2-trifluoroacetate] | 0.78 nM | 0.71 nM | 1.08 nM | 36 nM |  |  |
| NC[C@@H](C(=O)NCCC(=O)Nc1cc(C[n+]2cccc(/C=C/C(=O)NCCCCC3CCN(C(=O)c4cccc(N)c4)CC3)c2)ccc1O[C@@H]1O[C@H](C(=O)O)[C@@H](O)[C@H](O)[C@H]1O)N1C(=O)C=CC1=O [Compound 12, 1-(3-(3-((S)-3-ammonio-2-(2,5-dioxo-2,5-dihydro-1H-pyrrol-1-yl)propanamido)propanamido)-4-(((2S,3R,4S,5S,6S)-6-carboxy-3,4,5-trihydroxytetrahydro-2H-pyran-2-yl)oxy)benzyl)-3-((E)-3-((4-(1-(3-ammoniobenzoyl)piperidin-4-yl)butyl)amino)-3-oxoprop-1-en-1-yl)pyridin-1-ium 2,2,2-trifluoroacetate] |  |  |  |  | varying levels of tumor growth delay | well-tolerated, with no weight loss or outward signs of toxicity observed |
| NCCC(=O)Nc1cc(C[n+]2ccn3cc(C(=O)NCc4ccc(S(=O)(=O)c5cc(F)cc(F)c5)cc4)ccc32)ccc1O[C@@H]1O[C@H](C(=O)O)[C@@H](O)[C@H](O)[C@H]1O [Compound 28, 1-(3-(3-ammoniopropanamido)-4-(((2S,3R,4S,5S,6S)-6-carboxy-3,4,5-trihydroxytetrahydro-2H-pyran-2-yl)oxy)benzyl)-6-((4-((3,5-difluorophenyl)-sulfonyl)benzyl)carbamoyl)imidazo[1,2-a]pyridin-1-ium 2,2,2-trifluoroacetate] | 8.5 nM | 1 nM | 8 nM | 47 nM |  |  |
| CN(CC1(CO)CCCC1)C(=O)CCCCCCCN/C(=N\C#N)Nc1cc[n+](Cc2ccc(O[C@@H]3O[C@H](C(=O)O)[C@@H](O)[C@H](O)[C@H]3O)c(NC(=O)CCNC(=O)CCN3C(=O)C=CC3=O)c2)cc1 [Compound 26, 1-(4-(((2S,3R,4S,5S,6S)-6-carboxy-3,4,5-trihydroxytetrahydro-2H-pyran-2-yl)oxy)-3-(3-(3-(2,5-dioxo-2,5-dihydro-1H-pyrrol-1-yl)propanamido)-propanamido)benzyl)-4-((E)-2-cyano-3-(8-(((1-(hydroxymethyl)cyclopentyl)methyl)-(methyl)amino)-8-oxooctyl)guanidino)pyridin-1-ium 2,2,2-trifluoroacetate] |  |  |  |  | varying levels of tumor growth delay | well-tolerated, with no weight loss or outward signs of toxicity observed |
| NC[C@@H](C(=O)NCCC(=O)Nc1cc(C[n+]2cccc(/C=C/C(=O)NCCCCC3CCN(C(=O)c4ccccc4)CC3)c2)ccc1O[C@@H]1O[C@H](C(=O)O)[C@@H](O)[C@H](O)[C@H]1O)N1C(=O)C=CC1=O [Compound 5, 1-(3-(3-((S)-3-amino-2-(2,5-dioxo-2,5-dihydro-1H-pyrrol-1-yl)propanamido)propanamido)-4-(((2S, 3R, 4S, 5S, 6S)-6-carboxy-3,4,5-trihydroxy-tetrahydro-2H-pyran-2-yl)oxy)benzyl)-3-((E)-3-((4-(1-benzoylpiperidin-4-yl)butyl)amino)-3-oxoprop-1-en-1-yl)pyridin-1-ium 2,2,2-trifluoroacetate] |  |  |  |  | varying levels of tumor growth delay | well-tolerated, with no weight loss or outward signs of toxicity observed |
